The supplement of paper PMC10307832

The cell lines below were run with COc1cccc2cc(-c3nc([C@H]4CC[C@H](C(=O)O)CC4)n4ncnc(N)c34)[nH]c12 [OSI-027] + CC1(C)CCC(c2ccc(Cl)cc2)=C(CN2CCN(c3ccc(C(=O)NS(=O)(=O)c4ccc(N[C@H](CCN5CCOCC5)CSc5ccccc5)c(S(=O)(=O)C(F)(F)F)c4)cc3)CC2)C1 [Navitoclax] (partner 0.5 µM) (assay: relative viability (nuclei count vs DMSO), 5 days (fraction); higher = more cells survive). Conditions: first compound 1 µM.
Outline: (§1)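 Medians of duplicate plates are given as relative viability. That measure is the nuclei count in treated wells divided by the count in vehicle wells. Counts were taken on 4× images of lung cancer cell lines in 1536-well plates, 5 days after pin-tool dosing the day after seeding with one drug alone or a fixed anchor-drug dose plus five library-drug doses (not always all listed) in √10 steps.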

Cell Line	relative viability
LU99A	0.154
NCI-H460	0.0638
NCI-H2170	0.221
SK-LU-1	0.259
COR-L23	0.36
HCC-15	0.374
NCI-H1944	0.719
EMC-BAC-2	0.436
NCI-H1792	0.43
NCI-H1395	0.79
LC-2-ad	0.122
NCI-H2085	0.7
NCI-H727	0.318
NCI-H647	0.643
HARA	0.354
NCI-H3122	0.334
COR-L 105	0.429
LCLC-97TM1	0.159
NCI-H520	0.303
NCI-H23	0.319
HCC-827	0.651
NCI-H2347	0.333
LXF-289	0.582
NCI-H1666	0.391

Each cell line was assayed with CCCS(=O)(=O)Nc1ccc(F)c(C(=O)c2c[nH]c3ncc(-c4ccc(Cl)cc4)cc23)c1F [Vemurafenib] + CC(=O)c1c(C)c2cnc(Nc3ccc(N4CCNCC4)cn3)nc2n(C2CCCC2)c1=O [Palbociclib] (partner 0.5 µM) in the same assay as above. Conditions: first compound 0.03162 µM.
Outline: as §1

Cell Line	relative viability
NCI-H2405	0.493
NCI-H1993	0.63
ChaGo-K-1	0.941
NCI-H1355	0.384
HCC-366	0.359
NCI-H1915	0.526
NCI-H838	0.213
A-427	0.525
NCI-H2009	0.175
EKVX	0.41
NCI-H2087	0.204
NCI-H1734	0.344
LU99A	0.386
NCI-H460	0.146
NCI-H2170	0.403
SK-LU-1	0.388
COR-L23	0.325
HCC-15	0.717

Cell Line	relative viability
NCI-H1944	0.332
EMC-BAC-2	0.491
NCI-H1792	0.623
NCI-H1395	0.553
LC-2-ad	0.449
NCI-H2085	0.422
NCI-H727	0.699
NCI-H647	0.375
HARA	0.26
NCI-H3122	0.177
COR-L 105	0.405
NCI-H520	0.222
NCI-H23	0.495
HCC-827	0.413
NCI-H2347	0.427
LXF-289	0.548
NCI-H1666	0.579

Same assay, conditions: first compound 0.1 µM

Cell Line	relative viability
NCI-H2405	0.536
ChaGo-K-1	0.884
NCI-H1355	0.325
HCC-366	0.332
NCI-H1915	0.496
NCI-H838	0.236
A-427	0.481
NCI-H2009	0.172
NCI-H2087	0.222
NCI-H1734	0.335
LU99A	0.401
NCI-H460	0.152
SK-LU-1	0.377
COR-L23	0.257
HCC-15	0.689
EMC-BAC-2	0.416
NCI-H1792	0.581
NCI-H1395	0.613
LC-2-ad	0.466
